The results in this text go back to PubChem BioAssay (NCI).

Test systems include HCC-2998 colon; COLO 205 colon; MDA-MB-231 breast; OVCAR-3 ovarian; A549 NSCLC; NCI-H460 lung; SW-620 colon; HS 578T breast; OVCAR-5 ovarian; SN12C renal.
Holding throughout (assay): inhibition of tumour cell growth, NCI panel, 48 h

Structures are written as SMILES.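 These data come from cells grown in 96-well plates and exposed to compound for 48 hours at five concentrations. TGI denotes the concentration required for complete inhibition of growth.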 Where a SMILES comes first, the peptide text is derived from it. The star is where a group is joined. Cbz = O=C(OCc1ccccc1)*; Boc = CC(C)(C)OC(=O)*; tBu = CC(C)(C)*

Take `NCCCCC(N)C(=O)NCCNc1ccc(NCCNC(=O)C(N)CCCCN)c2c1C(=O)c1ccccc1C2=O` (stereo not given): the TGI in the assay on HCC-2998 colon, in the assay on COLO 205 colon, in the assay on MDA-MB-231 breast, in the assay on OVCAR-3 ovarian, with A549 NSCLC and with NCI-H460 lung was over 100 µM each time. Moreover, the TGI was over 100 µM in the assay on SW-620 colon, over 100 µM in the assay on HS 578T breast, over 100 µM in the assay with OVCAR-5 ovarian and 99.1 µM in the assay on SN12C renal.

On to `COc1cc2c(cc1OC)CCc1cc(OC)c(OC)cc1CC2`, for which the TGI in the assay on HCC-2998 colon, with COLO 205 colon, with MDA-MB-231 breast, in the assay with OVCAR-3 ovarian, in the assay with A549 NSCLC and in the assay with NCI-H460 lung was over 100 µM in each case. Further, the TGI with SW-620 colon, with HS 578T breast, with OVCAR-5 ovarian and in the assay with SN12C renal was over 100 µM in each case.

For the compound `O=C1N[C@@H](c2c[nH]c3cc(Br)ccc23)C(=O)N[C@H]1c1c[nH]c2cc(Br)ccc12`, the TGI in the assay with HCC-2998 colon is over 100 µM; in the assay on COLO 205 colon it was over 100 µM; in the assay with MDA-MB-231 breast it was 80.2 µM; in the assay on OVCAR-3 ovarian, over 100 µM; in the assay with A549 NSCLC, over 100 µM; in the assay with NCI-H460 lung it was over 100 µM. Further, the TGI in the assay on SW-620 colon, in the assay with HS 578T breast, in the assay with OVCAR-5 ovarian and in the assay on SN12C renal was over 100 µM throughout.

Regarding `CCN(CC)CC(=O)O[C@]1(CC)C(=O)OCc2c1cc1n(c2=O)Cc2cc3ccccc3nc2-1`, the TGI in the assay with HCC-2998 colon came out at 1.28 µM; in the assay with COLO 205 colon, 3.22 µM; in the assay with MDA-MB-231 breast it was 31.3 µM; in the assay with OVCAR-3 ovarian, 0.947 µM; in the assay on A549 NSCLC, 2.37 µM; with NCI-H460 lung it was 0.129 µM. Besides, the TGI is 4.33 µM with SW-620 colon, over 100 µM in the assay on HS 578T breast, 1.43 µM with OVCAR-5 ovarian and 1.8 µM with SN12C renal.

With `CC(OC(C)(C)C)C(NC(=O)C(CCCCNC(=O)OC(C)(C)C)NC(=O)C(Cc1c[nH]c2ccccc12)NC(=O)C(Cc1ccccc1)NC(=O)OCc1ccccc1)C(=O)NC(Cc1ccccc1)C(=O)O` (stereo not given) (Cbz-FWK(Boc)T(tBu)F-OH; configuration not given here), the TGI with HCC-2998 colon was over 100 µM; in the assay with COLO 205 colon, over 100 µM; in the assay with MDA-MB-231 breast, over 100 µM; with OVCAR-3 ovarian, 85 µM; in the assay on A549 NSCLC, over 100 µM; with NCI-H460 lung, over 100 µM. In addition, the TGI is over 100 µM with SW-620 colon, 44.4 µM in the assay with HS 578T breast, over 100 µM with OVCAR-5 ovarian and 62.6 µM in the assay on SN12C renal.

Consider `O=c1oc2cc(O)ccc2c(O)c1C(c1ccccc1F)c1c(O)c2ccc(O)cc2oc1=O`, for which the TGI in the assay with HCC-2998 colon, with COLO 205 colon, in the assay with MDA-MB-231 breast, in the assay on OVCAR-3 ovarian, in the assay on A549 NSCLC and in the assay with NCI-H460 lung was over 100 µM each time. The TGI in the assay with SW-620 colon, in the assay with HS 578T breast, in the assay with OVCAR-5 ovarian and in the assay on SN12C renal was over 100 µM throughout.

As for `COc1ccc(CCN2CCN(CCc3ccc(OC)cc3)CC2)cc1`, the TGI in the assay on HCC-2998 colon, in the assay on COLO 205 colon, in the assay on MDA-MB-231 breast, in the assay with OVCAR-3 ovarian, with A549 NSCLC and in the assay with NCI-H460 lung was over 100 µM each time. Besides, the TGI in the assay with SW-620 colon, in the assay on HS 578T breast, in the assay with OVCAR-5 ovarian and in the assay with SN12C renal was over 100 µM each time.

`c1ccc2c(c1)nc1n2CNC1`: the TGI in the assay with HCC-2998 colon, with COLO 205 colon, in the assay on MDA-MB-231 breast, in the assay on OVCAR-3 ovarian, in the assay on A549 NSCLC and with NCI-H460 lung was over 100 µM in each case. For the same compound, the TGI in the assay on SW-620 colon, in the assay with HS 578T breast, in the assay with OVCAR-5 ovarian and in the assay on SN12C renal was over 100 µM each time.

Turning to `Cc1ccc(/C=C2\CCC/C(=C\c3ccc(O)c(CN4CCCCC4)c3)C2=O)cc1`, the TGI in the assay with HCC-2998 colon is 15.3 µM; in the assay with COLO 205 colon, 44.6 µM; in the assay with MDA-MB-231 breast, 22.3 µM; in the assay on OVCAR-3 ovarian, 36.5 µM; with A549 NSCLC, over 49.3 µM; in the assay on NCI-H460 lung it was 20 µM. Moreover, the TGI in the assay with SW-620 colon stood at 17.7 µM; with HS 578T breast, 38.5 µM; in the assay with OVCAR-5 ovarian, 38.9 µM; in the assay with SN12C renal, 26.5 µM.

For `CC(=O)OC1(C)C=CC(=O)C=C1`, the TGI in the assay on HCC-2998 colon is over 100 µM; in the assay with COLO 205 colon, over 100 µM; with MDA-MB-231 breast it was 49.1 µM; with OVCAR-3 ovarian, over 100 µM; with A549 NSCLC, over 100 µM; in the assay on NCI-H460 lung, 79.5 µM. The TGI in the assay on SW-620 colon, in the assay with HS 578T breast, with OVCAR-5 ovarian and in the assay on SN12C renal was over 100 µM in each case.

As for `O=C1CCCC2(c3ccccc3)Nc3ccccc3N12` (stereo not given), the TGI with HCC-2998 colon, in the assay on COLO 205 colon, in the assay with MDA-MB-231 breast, in the assay on OVCAR-3 ovarian, with A549 NSCLC and in the assay with NCI-H460 lung was over 100 µM in each case. Further, the TGI with SW-620 colon, in the assay with HS 578T breast, in the assay with OVCAR-5 ovarian and in the assay on SN12C renal was over 100 µM in each case.

Turning to `Cc1ccc(N=Nc2c(C)c(C#N)c(=S)n(C3OC(CO)C(O)C(O)C3O)c2C)cc1` (stereo not given), the TGI in the assay with HCC-2998 colon is 58.5 µM; in the assay on COLO 205 colon it was over 100 µM; in the assay on MDA-MB-231 breast it was 60 µM; with OVCAR-3 ovarian it was 74.4 µM; in the assay with A549 NSCLC it was over 100 µM; in the assay with NCI-H460 lung, 91.3 µM. Besides, the TGI is 38.8 µM with SW-620 colon, over 100 µM in the assay with HS 578T breast, over 100 µM with OVCAR-5 ovarian and 94.2 µM with SN12C renal.

Take `CN(/N=C/c1ccc(OCc2cccc(COc3ccc(C=O)cc3)n2)cc1)c1cnn(-c2ccc(Cl)cc2Cl)c(=O)c1Cl`: the TGI in the assay with HCC-2998 colon, with COLO 205 colon, with MDA-MB-231 breast, with OVCAR-3 ovarian, in the assay with A549 NSCLC and in the assay with NCI-H460 lung was over 100 µM throughout. Besides, the TGI in the assay on SW-620 colon, in the assay with HS 578T breast, in the assay on OVCAR-5 ovarian and in the assay on SN12C renal was over 100 µM in each case.

As to `COC(=O)CCc1cc(O)c2c(c1)C(C(=O)OC)C(c1ccc(O)c(O)c1)O2` (stereo not given), the TGI was 39.8 µM in the assay on HCC-2998 colon; over 100 µM in the assay with COLO 205 colon; over 100 µM in the assay with MDA-MB-231 breast; over 67.1 µM in the assay on OVCAR-3 ovarian; over 100 µM with A549 NSCLC; over 62.8 µM in the assay with NCI-H460 lung. Moreover, the TGI is over 100 µM in the assay with SW-620 colon, over 95.9 µM in the assay on HS 578T breast, over 100 µM with OVCAR-5 ovarian and over 88.7 µM with SN12C renal.

Turning to `Cc1cc(C)n(C2OC(CO)C(O)C(O)C2O)c(=S)c1C#N` (stereo not given), the TGI in the assay on HCC-2998 colon, in the assay on COLO 205 colon, with MDA-MB-231 breast, with OVCAR-3 ovarian, in the assay on A549 NSCLC and with NCI-H460 lung was over 100 µM in each case. The TGI with SW-620 colon, in the assay with HS 578T breast, in the assay with OVCAR-5 ovarian and with SN12C renal was over 100 µM in each case.

On to `COc1ccc(C2=Nn3c(nnc(Cc4ccc(Cl)cc4)c3=O)SC2)cc1`, for which the TGI is over 100 µM in the assay on HCC-2998 colon; over 100 µM in the assay on COLO 205 colon; over 100 µM in the assay with MDA-MB-231 breast; 92.2 µM in the assay on OVCAR-3 ovarian; over 100 µM in the assay with A549 NSCLC; over 100 µM with NCI-H460 lung. Moreover, the TGI in the assay on SW-620 colon, in the assay on HS 578T breast, in the assay on OVCAR-5 ovarian and in the assay on SN12C renal was over 100 µM in each case.

Take `CCOP(=O)(CN1CCNCCNCC1)OCC`: the TGI in the assay on HCC-2998 colon, with COLO 205 colon, in the assay with MDA-MB-231 breast, with OVCAR-3 ovarian, with A549 NSCLC and with NCI-H460 lung was over 100 µM throughout. The TGI with SW-620 colon, in the assay with HS 578T breast, in the assay on OVCAR-5 ovarian and with SN12C renal was over 100 µM in each case.

Take `CC(C)(C)C1=CC(=C(c2ccc(-c3c4nc(c(-c5ccc(C(=C6C=C(C(C)(C)C)C(=O)C(C(C)(C)C)=C6)c6cc(C(C)(C)C)c(O)c(C(C)(C)C)c6)cc5)c5ccc([nH]5)c(-c5ccc(C(=C6C=C(C(C)(C)C)C(=O)C(C(C)(C)C)=C6)c6cc(C(C)(C)C)c(O)c(C(C)(C)C)c6)cc5)c5nc(c(-c6ccc(C(=C7C=C(C(C)(C)C)C(=O)C(C(C)(C)C)=C7)c7cc(C(C)(C)C)c(O)c(C(C)(C)C)c7)cc6)c6ccc3[nH]6)C=C5)C=C4)cc2)c2cc(C(C)(C)C)c(O)c(C(C)(C)C)c2)C=C(C(C)(C)C)C1=O`: the TGI in the assay on HCC-2998 colon, in the assay on COLO 205 colon, in the assay with MDA-MB-231 breast, in the assay with OVCAR-3 ovarian, in the assay on A549 NSCLC and in the assay on NCI-H460 lung was over 100 µM throughout. For the same compound, the TGI in the assay on SW-620 colon, in the assay with HS 578T breast, with OVCAR-5 ovarian and with SN12C renal was over 100 µM throughout.
